Data from PubChem BioAssay AID720577 (The Scripps Research Institute Molecular Screening Center, 2013).
Activity calls are given as the source filed them. The rule behind the calls is not given here.

Target: CCHF virus vOTU protease domain (L polyprotein)
Assay: CCHF virus vOTU protease inhibition, Pep AMC substrate counterscreen, fluorescence, confirmatory IC50 (AID 720577)
Conditions: purified vOTU

| SMILES | IC50 |
| --- | --- |
| CCCNC1=C(N(C(C)=O)c2cccc(F)c2)C(=O)c2ccccc2C1=O | > 12.7 µM (inactive) |
| O=C(c1ccco1)[C@@H]1[C@@H]2C(=O)N(c3ccc(Br)cc3)C(=O)[C@@H]2C2c3ccccc3C=CN21 (stereo partly drawn) | inactive |
| COc1cc2c(cc1OC)-c1c(OC)c(OC)cc3c1[C@H](C2)N(C)CC3 | > 12.7 µM (inactive) |
| CC(=O)N(/N=C1\Sc2ccccc2C1=O)c1ccccc1C | inactive |
| Cn1c(=O)c2c(-c3ccccc3)n(-c3ccc(N)cc3)cc2n(C)c1=O | inactive |
| CCCCCCCCCCOC(=O)Cn1c(COc2ccc(Cl)cc2)[n+](C)c2ccccc21 | 6.42 µM |
| CCCCn1c(NS(=O)(=O)c2ccccc2)c(C(=O)OCC)c2nc3ccccc3nc21 | > 115 µM (inactive) |
| O=C1C=C(Nc2ccccc2C(=O)O)c2ccccc2C1=O | 7.39 µM |
| COc1ccc(Cc2nccc3cc(OC)c(OC)cc23)cc1OC | inactive |
| CN(C)CCCNc1cc(O)c2ncccc2c1 | inactive |
| CN(C)c1ccc2nc3ccc(=O)cc-3sc2c1 | > 115 µM (inactive) |
| Cc1ccc(NC2=CC(=O)C(=O)c3ccccc32)cc1 | inactive |
| CN1/C(=C\C=C2C(=O)NC(=O)NC2=O)C(C)(C)c2ccccc21 | inactive |
| COc1ccc(S(=O)(=O)/N=C2\C=C(Nc3ccc(O)cc3)C(=O)c3ccccc32)cc1 | 1.33 µM |
| COc1cccc2c1C(=O)c1c(O)c3c(c(O)c1C2=O)C[C@@](O)(C(=O)CO)C[C@@H]3O[C@H]1C[C@H](N)[C@H](O)[C@H](C)O1 | inactive |
| Cc1c(Cl)cnc(NC(=O)COC(=O)c2ccc([N+](=O)[O-])s2)c1Cl | inactive |
| Nc1ccc(N2CCCCC2)c2nonc12 | inactive |
| COc1ccccc1Nc1cc2cc(Br)ccc2c(=O)[nH]1 | 1.36 µM |
| CC(=O)N(C1=C(Cl)C(=O)c2ccccc2C1=O)c1ccc(C(=O)O)cc1 | 4.77 µM |
| Cc1ccccc1NC1=C/C(=N\S(=O)(=O)c2cccs2)c2ccccc2C1=O | 1.04 µM |
| C[n+]1c(-c2ccccc2)c2cc(N)ccc2c2ccc(N)cc21 | inactive |
| O=S(=O)(Nc1cc2nc3ccccc3nc2n1Cc1ccccc1)c1ccc(Cl)cc1 | 7.6 µM |
| CC(=O)[C@@H]1[C@@H]2C(=O)N(c3ccc(F)c(Cl)c3)C(=O)[C@@H]2C2c3ccccc3C=CN21 (stereo partly drawn) | inactive |
| CC1OC2CC(=O)OC2C2=C1C(=O)c1c(O)cccc1C2=O (stereo not drawn) | inactive |
| CC(=O)NC1=C(N(C)C2CCS(=O)(=O)C2)C(=O)c2ccccc2C1=O (stereo not drawn) | inactive |
| Oc1ccccc1CNc1cccc2cccnc12 | inactive |
| CCOC(=O)c1cc2c(=Cc3ccc(N(C)C)cc3)c3ccccc3n2[n+]1C | 5.69 µM |
| O=C(COC(=O)c1ccc([N+](=O)[O-])s1)NCc1ccc(F)cc1 | inactive |
